These results are taken from US9725457B2, “6-amido derivatives of 4, 5-a epoxymorphinans for the treatment of pain” (Sloan-Kettering Institute for Cancer Research, priority 2010, dated 2017).

The test system of series [1] is mice. The series is described as follows: Gastrointestinal motility (charcoal meal transit) assay. It is filed as in vivo. As for the experimental part:
Gastrointestinal motility assay: Gastrointestinal transit was determined as described by Paul and Pasternak [Eur. J. Pharmacol. 149 (1988), pp. 403-404.)]. In brief, after withholding food for 8 hours, animals received the indicated drug and then were given a charcoal meal (0.2 mL; 10% of purified charcoal and 2.5% of gum tragacanth, w/v) by gavage and were sacrificed 30 min later. The distance traveled by the charcoal meal was then measured and reported in centimeters.

Another series concerns the target kappa3 opioid receptor (Mus musculus, UniProt P42866). The series can be described thus: Kappa3 opioid receptor competition binding in whole brain membrane homogenates. As for the experimental part: (§1) Receptor-Binding Assays: Competition-binding assays in MOR-CHO (mu), DOR-CHO (delta) and KOR-CHO (kappa) were performed at 25° C. in 50 mM potassium phosphate buffer, pH 7.4, containing 5 mM magnesium sulfate (only in the case of CHO-MOR). Specific binding was defined as the difference between total binding and nonspecific binding, determined in the presence of 8 μM levallorphan. 125I-SMGP1 (IBNtxA) was used as the universal radioligand to determine the relative affinity of drugs in MOR1-CHO, KOR1-CHO and DOR1-CHO. Protein concentrations were generally 20-40 μg/mL, incubation times were 90 minutes for all assays. (Majumdar et al., Bioorg Med Chem Lett. 2011, 21(13), 4001-4004). Kappa3 opioid receptor competition binding assays were carried out in whole brain membrane homogenates, performed at 25° C. in 50 mM potassium phosphate buffer, pH 7.4, containing 5 mM magnesium sulfate for 90 minutes in presence of 100 nM CTAP, 100 nM U50488h and 100 nM DPDPE. ^125I-SMGP1 was used as the radioligand in the assays, typically 500 micrograms of protein and 0.15 nM of the radioligand was used in a 0.5 mL assay. Specific binding was defined as the difference between total binding and nonspecific binding, determined in the presence of 8 μM levallorphan. Protein concentration was determined as described by Lowry et al. [J Biol Chem 1951, 193, 265-275; (1951)] using bovine serum albumin as the standard. Kd, Bmax, and Ki values were calculated by nonlinear regression analysis (GraphPadPrism). […] The “kappa3 opioid receptor” as referred to herein is the receptor first characterized by Clark et al. [J. Pharmacol. Exp. Ther. 251, 461-468 (1989)].

The test system of series [2] is mice. The series can be described thus: Tolerance studies and effects of chronic administration (cross tolerance, precipitated withdrawal). On the procedure: Tail-flick latencies were determined before and 30 minutes after each injection. See Gistrak et al. (1989) op. cit. […] Similarly, a group of mice (n=10) were made tolerant to test compound by twice daily injections to 1 mg/kg, s.c. for 10 days. […] Animals were evaluated for signs of diarrhea and jumping. See Gistrak et al. (1989) op. cit.

Series [3] relates to mice. The series is described as follows: Respiratory depression assessment (MouseOx pulse oximeter). Conditions: CD1 mice. As for the experimental part:
Respiratory Depression assessment: The MouseOx Pulse Oximeter system (Starr Life Sciences, Pittsburgh, Pa.) was used to assess respiratory rate in awake, freely-moving, adult male CD1 mice. For 30 minutes, each animal was habituated to the device using a blank collar, after which the oximeter collar was placed on the animal. A five-second average breath rate was assessed at 5 minute intervals. A baseline for each animal was obtained over a 25 minute period prior to drug injection; beginning 15 minutes post-injection, measurements were then taken for a period of 35 minutes.

In series [4] the target is T1, DOR (delta opioid receptor), DOR1-CHO (Mus musculus, UniProt P32300).
T1 construct: expressed in transfected cells; host or cells: CHO
The series can be described thus: Competition binding in DOR-CHO, 125I-SMGP1 radioligand. As for the experimental part:
Receptor-Binding Assays: Competition-binding assays in MOR-CHO (mu), DOR-CHO (delta) and KOR-CHO (kappa) were performed at 25° C. in 50 mM potassium phosphate buffer, pH 7.4, containing 5 mM magnesium sulfate (only in the case of CHO-MOR). Specific binding was defined as the difference between total binding and nonspecific binding, determined in the presence of 8 μM levallorphan. […] Protein concentrations were generally 20-40 μg/mL, incubation times were 90 minutes for all assays. […] Specific binding was defined as the difference between total binding and nonspecific binding, determined in the presence of 8 μM levallorphan. […] Kd, Bmax, and Ki values were calculated by nonlinear regression analysis (GraphPadPrism).

The target of series [5] is T2, MOR (mu opioid receptor), MOR1-CHO (Mus musculus, UniProt P42866).
T2 construct: expressed in transfected cells; host or cells: CHO
The series is described as follows: Competition binding in MOR-CHO, 125I-SMGP1 radioligand. On the procedure: as §1

Series [6] deals with mice. The series is described as follows: Radiant heat tail flick analgesia assay. It is filed as in vivo. The note with it: for ED50: Mus musculus, male CD-i mice, radiant heat tail-flick. As for the experimental part:
Tail Flick Analgesia Assays: Male CD-i mice (25-35 g; Charles River Breeding Laboratories, Wilmington, Mass.) were maintained on a 12-hr light/dark cycle with Purina rodent chow and water available ad libitum. Mice were housed in groups of five until testing. Analgesia was determined using the radiant heat tail-flick technique [D'Amour and Smith, J. Pharmacol. Exp. Ther. 72: 74-79 (1941)]. For the tail-flick assay, the latency to withdraw the tail from a focused light stimulus was measured electronically using a photocell. […] Post-treatment tail-flick latencies were determined as indicated for each experiment, and a maximal latency of 10 sec for tail-flick was used to minimize tissue damage. All experiments were replicated at least twice with each group in each experiment containing at least 10 mice and the combined results of all replications presented.

The target of series [7] is T3, KOR (kappa opioid receptor), KOR1-CHO (Mus musculus, UniProt P33534).
T3 construct: expressed in transfected cells; host or cells: CHO
The series can be described thus: Competition binding in KOR-CHO, 125I-SMGP1 radioligand. On the procedure: as §1

`O=C(NC1CCC2(O)C3Cc4ccc(O)c5c4C2(CCN3CC2CC2)C1O5)c1cccc(I)c1` (stereo not drawn) [SMGP 1]: the “effect on the inhibition of gastrointestinal transit” value with mice [1] is listed as “minimal”. Besides, the “affinity for the kappa3 site in words” value on kappa3 opioid receptor is “high affinity”. In addition, the “physical dependence (withdrawal on challenge with an antagonist after chronic administration)” value in the series on mice [2] (chronic administration, challenge with antagonist) is “no physical dependence”. Further, the “tolerance with chronic administration” value in the series with mice [2] (chronic administration, mice) was “some tolerance”. In addition, in the series on mice [2] (highly morphine tolerant mice), the “analgesic response in highly morphine tolerant mice” value was “normal analgesic response”. The “cross tolerance to morphine” value with mice [2] (mice) is “no cross tolerance to morphine”. Moreover, the “respiratory depression as compared to saline” value with mice [3] (2.5 mg/kg subcutaneously (five times the ED50)) is on record as “no statistically significant depression”. Moreover, the inhibitory constant (Ki) in series [4] worked out at 0.24 nM; in series [5], 0.11 nM; in series [7], 0.03 nM. The compound further came in with an ED50 in the series with mice [6] of 0.53 mg/kg. In the series on mice [6] (mice), the “analgesic potency in mice relative to morphine” value was “potency greater than morphine”.

On to `C=CCN1CCC23c4c5ccc(O)c4OC2C(NC(=O)C24CC6CC(CC(C6)C2)C4)CCC3(O)C1C5` (stereo not drawn) [SMGP 58], for which the Ki in series [4] is greater than 100 nM; in series [5] it was 6.5 nM; in series [7], 7.1 nM. This compound also displayed an ED50 in the series with mice [6] greater than 10 mg/kg.

`C=CCN1CC[C@]23c4c5ccc(O)c4O[C@H]2C(NC(=O)c2ccc(SC)cc2)CC[C@@]3(O)[C@H]1C5` (stereo partly drawn) [SMGP 59]: the inhibition constant (Ki) turned out to be 15.9 nM in series [4], 0.8 nM in series [5] and 3.67 nM in series [7]. In addition, the ED50 in the series with mice [6] worked out at 5.43 mg/kg.

Take `C=CCN1CC[C@]23CCCC[C@H]2[C@H]1Cc1ccc(O)cc13` [levallorphan, reference compound]: the “affinity for the kappa3 site in words” value on kappa3 opioid receptor was “high affinity”. The “reversal of the analgesia elicited by SMGP1 by an antagonist” value in the series with mice [6] (antagonist given against SMGP1 analgesia in mice) is listed as “effectively reversed”.

In the case of `CN1CC[C@]23CCCC[C@H]2[C@H]1Cc1ccc(O)cc13` [levorphanol], the “affinity for the kappa3 site in words” value on kappa3 opioid receptor is on record as “high affinity”.

Regarding `CN1CC[C@]23c4c5ccc(O)c4O[C@H]2[C@@H](O)C=C[C@H]3[C@H]1C5` [morphine, reference compound], the respiratory depression in the series with mice [3] (20 mg/kg subcutaneously (five times the ED50)) is on record as 50%.
